# Data reported in patent publication US20230092679A1, “MCL-1 INHIBITOR ANTIBODY-DRUG CONJUGATES AND METHODS OF USE” (NOVARTIS AG, priority 2019, published 2023).
# Columns and labels:
# Format in all cases: cell-based
# [1] = system: various MM cell lines; experiment: In vitro ADC activity, MM cell lines, CellTiter-Glo (Example 20, Table 39); details: 5 days treatment; for Amax: in %
# [2] = system: NCI-H929; experiment: CellTiter-Glo proliferation assay, single agent and with venetoclax (Example 19); details: 5 days; for IC50: Homo sapiens, NCI-H929, 120 h; for Amax: in %
# Description: (§1) The CD48 MCL-1 antibody drug conjugates were tested against four endogenous cancer cell lines. KMS-21 BM (JCRB No. JCRB1185 cultured in RPMI-1640+10% FBS), KMS-20 (JCRB No. JCRB1196 cultured in RPMI-1640+10% FBS), KMS-27 (JCRB No. JCRB1188 cultured in RPMI-1640+10% FBS), and NCI-H929 (ATCC No. CRL-9068 cultured in RPMI-1640+10% FBS+0.05 mM 2-mercaptoethanol).
# (§2) The ability of the CD48 MCL-1 antibody drug conjugates to inhibit cell proliferation and survival was assessed using the Promega CellTiter-Glo® proliferation assay. Cell lines were cultured in media that is optimal for their growth at 5% CO2, 37° C. in a tissue culture incubator. Prior to seeding for the proliferation assay, the cells were split at least 2 days before the assay to ensure optimal growth density. On the day of seeding, suspension cells were harvested. Cell viability and cell density were determined using a cell counter (Vi-Cell XR Cell Viability Analyzer, Beckman Coulter). […] Cells were seeded at a density of 1,000 cells per well in 45 μL of standard growth media. Plates were incubated at 5% CO2, 37° C. overnight in a tissue culture incubator. The next day, free MCL-1 payload (P1), targeting MCL-1 ADCs and non-targeting isotype ADCs were prepared at 10× in standard growth media. The prepared drug treatments were then added to the cells resulting in final concentrations of 0.0005-300 nM and a final volume of 50 μL per well. Each drug concentration was tested in quadruplets. Two conditions were evaluated for each compound. The compounds were evaluated as single agents and in combination with venetoclax. The venetoclax was dosed at either 5 nM or 50 nM final concentration. Plates were incubated at 5% CO2, 37° C. for 5 days in a tissue culture incubator, after which cell viability was assessed through the addition of 25 μL of CellTiter Glo® (Promega, cat #G7573), a reagent which lyses cells and measures total adenosine triphosphate (ATP) content. Plates were incubated at room temperature for 10 minutes to stabilize luminescent signals prior to reading using a luminescence reader (EnVision Multilabel Plate Reader, PerkinElmer). To evaluate the effect of the drug treatments, luminescent counts from wells containing untreated cells (100% viability) were used to normalize treated samples. A variable slope model was applied to fit a nonlinear regression curve to the data in GraphPad PRISM version 7.02 software. IC50 and Amax values were extrapolated from the resultant curves.
# [3] = system: KMS-20; experiment: as above; details: 5 days; for IC50: KMS-20, 120 h; for Amax: in %
# Description: as §1, §2
# [4] = system: KMS-21 BM; experiment: as above; details: 5 days; for IC50: 120 h; for Amax: in %
# Description: as §1, §2
# [5] = system: KMS-27; experiment: as above; details: 5 days; for IC50: KMS-27, 120 h; for Amax: in %
# Description: as §1, §2
smiles,measurement,setting,value
"COc1ccccc1-c1nccc(COc2ccccc2C[C@@H](Oc2ncnc3sc(-c4ccc(F)cc4)c(-c4ccc(OCCN5CCN(C)CC5)c(Cl)c4C)c23)C(=O)O)n1 [P1, (2R)-2-[5-[3-chloro-2-methyl-4-[2-(4-methylpiperazin-1-yl)ethoxy]phenyl]-6-(4-fluorophenyl)thieno[2,3-d]pyrimidin-4-yl]oxy-3-[2-[[2-(2-methoxyphenyl)pyrimidin-4-yl]methoxy]phenyl]propanoic acid]",GI50,"[1]; 120 h, Ip1 cell line",7 nM
same,GI50,"[1]; 120 h, u266b1 cell line",283 nM
same,GI50,"[1]; Homo sapiens, AMO1, 120 h, amo1 cell line",5 nM
same,GI50,"[1]; Homo sapiens, EJM, 120 h, ejm cell line",61 nM
same,GI50,"[1]; Homo sapiens, KMS-11, 120 h, kms11 cell line",98 nM
same,GI50,"[1]; Homo sapiens, KMS-12-BM, 120 h, kms12bm cell line",11 nM
same,GI50,"[1]; Homo sapiens, L-363, 120 h, L363 cell line",3 nM
same,GI50,"[1]; Homo sapiens, MOLP-8, 120 h, molp8 cell line",1 nM
same,GI50,"[1]; Homo sapiens, NCI-H929, 120 h, h929 cell line",1 nM
same,GI50,"[1]; Homo sapiens, OPM-2, 120 h, opm2 cell line",1 nM
same,GI50,"[1]; Homo sapiens, RPMI-8226, 120 h, rpmi8226 cell line",2 nM
same,GI50,"[1]; Homo sapiens, SK-MM-2, 120 h, skmm2 cell line",> 10000 nM
same,Amax,[1]; Ip1 cell line,−58
same,GI50,"[1]; KE-97, 120 h, ke97 cell line",7910 nM
same,GI50,"[1]; KHM-1B, 120 h, khm1b cell line",2 nM
same,GI50,"[1]; KMM-1, 120 h, kmm1 cell line",154 nM
same,GI50,"[1]; KMS-20, 120 h, kms20 cell line",8 nM
same,GI50,"[1]; KMS-21BM, 120 h, kms21bm cell line",1 nM
same,GI50,"[1]; KMS-26, 120 h, kms26 cell line",60 nM
same,GI50,"[1]; KMS-27, 120 h, kms27 cell line",1 nM
same,GI50,"[1]; KMS-28BM, 120 h, kms28bm cell line",6 nM
same,GI50,"[1]; KMS-34, 120 h, kms34 cell line",498 nM
same,GI50,"[1]; Karpas-620, 120 h, karpas620 cell line",205 nM
same,Amax,[1]; L363 cell line,−47
same,Amax,[1]; amo1 cell line,−20
same,Amax,[1]; ejm cell line,−93
same,Amax,[1]; h929 cell line,−74
same,Amax,[1]; karpas620 cell line,−43
same,Amax,[1]; ke97 cell line,21
same,Amax,[1]; khm1b cell line,−84
same,Amax,[1]; kmm1 cell line,−67
same,Amax,[1]; kms11 cell line,−62
same,Amax,[1]; kms12bm cell line,−79
same,Amax,[1]; kms20 cell line,−88
same,Amax,[1]; kms21bm cell line,−76
same,Amax,[1]; kms26 cell line,−49
same,Amax,[1]; kms27 cell line,−89
same,Amax,[1]; kms28bm cell line,−42
same,Amax,[1]; kms34 cell line,−64
same,Amax,[1]; molp8 cell line,−74
same,Amax,[1]; opm2 cell line,−77
same,Amax,[1]; rpmi8226 cell line,−91
same,Amax,[1]; skmm2 cell line,112
same,Amax,[1]; u266b1 cell line,−24
same,IC50,"[2]; NCI-H929, + 5 nM Venetoclax",8.69 nM
same,IC50,"[2]; NCI-H929, + 50 nM Venetoclax",8.29 nM
same,IC50,"[2]; NCI-H929, single agent",10.7 nM
same,Amax,"[2]; NCI-H929, + 5 nM Venetoclax",91.53
same,Amax,"[2]; NCI-H929, + 50 nM Venetoclax",103.4
same,Amax,"[2]; NCI-H929, single agent",90.09
same,IC50,"[3]; KMS-20, + 5 nM Venetoclax",30.6 nM
same,IC50,"[3]; KMS-20, + 50 nM Venetoclax",36.2 nM
same,IC50,"[3]; KMS-20, single agent",34.7 nM
same,Amax,"[3]; KMS-20, + 5 nM Venetoclax",75.53
same,Amax,"[3]; KMS-20, + 50 nM Venetoclax",82.77
same,Amax,"[3]; KMS-20, single agent",65.65
same,IC50,[4]; + 5 nM Venetoclax,5.57 nM
same,IC50,[4]; + 50 nM Venetoclax,5.23 nM
same,IC50,[4]; single agent,5.73 nM
same,Amax,[4]; + 5 nM Venetoclax,100.8
same,Amax,[4]; + 50 nM Venetoclax,99.41
same,Amax,[4]; single agent,94.25
same,IC50,"[5]; KMS-27, + 5 nM Venetoclax",20.1 nM
same,IC50,"[5]; KMS-27, + 50 nM Venetoclax",12 nM
same,IC50,"[5]; KMS-27, single agent",153 nM
same,Amax,"[5]; KMS-27, + 5 nM Venetoclax",110.5
same,Amax,"[5]; KMS-27, + 50 nM Venetoclax",114.7
